Experimental data: patent publication US8252832B2, “Kinesin inhibitors as cancer therapeutics” (Novartis AG, priority 2007, dated 2012)
Where two headings read alike, the source gives them in different places.

Test system: panel of cell lines derived from hematological malignancies
Test: Cell survival assay, CellTiter-Glo readout after 48 hours, hematological panel
Type: cell-based
Parameters: key to Differential: panel average log(GI50) minus cell line log(GI50); positive = more sensitive
Description: Compound IIa was tested against a panel of cell lines derived from hematological malignancies in a cell survival assay using CellTiter-Glo® as a readout after 48 hours in the presence of compound. Table 18 lists the type of hematological malignancy, the name of the sample, its GI50 (concentration needed to achieve 50% growth inhibition) value in the assay, the logarithm of the GI50 (log(GI50), and the relative sensitivity of each sample (Differential). The differential is calculated by subtracting the log(GI50) for each cell line from the average log(GI50) across the entire panel (0.236 in this case); a positive value indicates a sample that is more sensitive than average, whereas a negative value indicates a sample that is less sensitive than average.

Work on `CC(C)(C)[C@H](c1nc(-c2cc(F)ccc2F)cn1Cc1ccccc1)N(CC[C@H](N)CF)C(=O)CO` [Compound IIa] yielded a Differential (697 (ALL)) of 0.613, a GI50 (48 h, 697 (ALL), read-out: GI50) of 0.11 nM and a GI50 (48 h, 697 (ALL), read-out: Log(GI50) (converted)) of 0.105 nM. For the same molecule, the GI50 (48 h, AML-193 (AML), read-out: GI50) was 0.11 nM, the GI50 (48 h, AML-193 (AML), read-out: Log(GI50) (converted)) was 0.11 nM and the GI50 (48 h, DEL (NHL), read-out: GI50) was 0.28 nM. The GI50 (48 h, DEL (NHL), read-out: Log(GI50) (converted)) was 0.283 nM, the GI50 (48 h, H929-Luc (MM), read-out: GI50) was 1.69 nM and the GI50 (48 h, H929-Luc (MM), read-out: Log(GI50) (converted)) was 1.69 nM. For the same molecule, the GI50 (48 h, HEL92 (AML), read-out: GI50) was 0.49 nM, the GI50 (48 h, HEL92 (AML), read-out: Log(GI50) (converted)) was 0.49 nM and the GI50 (48 h, HH (NHL), read-out: GI50) was 0.22 nM. The GI50 (48 h, HH (NHL), read-out: Log(GI50) (converted)) was 0.215 nM, the GI50 (48 h, KMS11-Luc (MM), read-out: GI50) was 0.29 nM and the GI50 (48 h, KMS11-Luc (MM), read-out: Log(GI50) (converted)) was 0.29 nM. The GI50 (48 h, KMS12 (MM), read-out: GI50) was 0.29 nM, the GI50 (48 h, KMS12 (MM), read-out: Log(GI50) (converted)) was 0.29 nM and the GI50 (48 h, KMS18-Luc (MM), read-out: GI50) was 0.52 nM. It also gave a GI50 (48 h, KMS18-Luc (MM), read-out: Log(GI50) (converted)) of 0.518 nM, a GI50 (48 h, Karpas-299-Luc (NHL), read-out: GI50) of 20.2 nM and a GI50 (48 h, Karpas-299-Luc (NHL), read-out: Log(GI50) (converted)) of 20.2 nM. For the same molecule, the GI50 (48 h, LP1 (MM), read-out: GI50) was 0.21 nM, the GI50 (48 h, LP1 (MM), read-out: Log(GI50) (converted)) was 0.205 nM and the GI50 (48 h, MHH-CALL-2 (ALL), read-out: GI50) was 0.32 nM. The GI50 (48 h, MHH-CALL-2 (ALL), read-out: Log(GI50) (converted)) was 0.315 nM, the GI50 (48 h, MHH-CALL-3 (ALL), read-out: GI50) was 0.2 nM and the GI50 (48 h, MHH-CALL-3 (ALL), read-out: Log(GI50) (converted)) was 0.2 nM. For the same molecule, the GI50 (48 h, MM1-S-Luc (MM), read-out: GI50) was 0.23 nM, the GI50 (48 h, MM1-S-Luc (MM), read-out: Log(GI50) (converted)) was 0.23 nM and the GI50 (48 h, MOLM13-Luc (AML), read-out: GI50) was 0.23 nM. The GI50 (48 h, MOLM13-Luc (AML), read-out: Log(GI50) (converted)) was 0.226 nM, the GI50 (48 h, MUTZ-5 (ALL), read-out: GI50) was 10 nM and the GI50 (48 h, MUTZ-5 (ALL), read-out: Log(GI50) (converted)) was 10 nM. It also gave a GI50 (48 h, MV4, 11Luc (AML), read-out: GI50) of 0.11 nM, a GI50 (48 h, MV4, 11Luc (AML), read-out: Log(GI50) (converted)) of 0.105 nM and a GI50 (48 h, Mean across the entire panel, read-out: GI50) of 0.43 nM. For the same molecule, the GI50 (48 h, Mean across the entire panel, read-out: Log(GI50) (converted)) was 0.431 nM, the GI50 (48 h, NALM-19 (ALL), read-out: GI50) was 0.19 nM and the GI50 (48 h, NALM-19 (ALL), read-out: Log(GI50) (converted)) was 0.19 nM. It also gave a GI50 (48 h, REH (ALL), read-out: GI50) of 0.18 nM, a GI50 (48 h, REH (ALL), read-out: Log(GI50) (converted)) of 0.18 nM and a GI50 (48 h, RL (NHL), read-out: GI50) of 20 nM. For the same molecule, the GI50 (48 h, RL (NHL), read-out: Log(GI50) (converted)) was 20 nM, the GI50 (48 h, SEM-Luc (ALL), read-out: GI50) was 0.15 nM and the GI50 (48 h, SEM-Luc (ALL), read-out: Log(GI50) (converted)) was 0.15 nM. It also gave a GI50 (48 h, SR (NHL), read-out: GI50) of 0.11 nM, a GI50 (48 h, SR (NHL), read-out: Log(GI50) (converted)) of 0.11 nM and a GI50 (48 h, TANOUE (ALL), read-out: GI50) of 10 nM. For the same molecule, the GI50 (48 h, TANOUE (ALL), read-out: Log(GI50) (converted)) was 10 nM, the GI50 (48 h, YT (ALL), read-out: GI50) was 10 nM and the GI50 (48 h, YT (ALL), read-out: Log(GI50) (converted)) was 10 nM. It also gave a GI50 (48 h, hematological panel, read-out: average log(GI50) across the entire panel (converted)) of 1.72 nM, a Differential (AML-193 (AML)) of 0.593 and a Differential (CCRF-CEM (ALL)) of 0.419. The Differential (CCRF-HSB-2 (ALL)) was 0.367, the Differential (DEL (NHL)) was 0.182 and the Differential (DOHH2 (NHL)) was 0.263. It also gave a Differential (H929 (MM)) of 0.109, a Differential (H929-Luc (MM)) of −0.593 and a Differential (HDLM-2 (HL)) of 0.555. It also gave a Differential (HEL92 (AML)) of −0.056, a Differential (HH (NHL)) of 0.301 and a Differential (HL60 (AML)) of 0.416. For the same molecule, the Differential (HL60-Luc (AML)) was −0.072, the GI50 (HL-60-Luc, 48 h, HL60-Luc (AML), read-out: GI50) was 0.51 nM and the GI50 (HL-60-Luc, 48 h, HL60-Luc (AML), read-out: Log(GI50) (converted)) was 0.508 nM. It also gave a GI50 (Homo sapiens, CCRF-CEM, 48 h, CCRF-CEM (ALL), read-out: GI50) of 0.16 nM, a GI50 (Homo sapiens, CCRF-CEM, 48 h, CCRF-CEM (ALL), read-out: Log(GI50) (converted)) of 0.164 nM and a GI50 (Homo sapiens, CCRF-HSB-2, 48 h, CCRF-HSB-2 (ALL), read-out: GI50) of 0.19 nM. It also gave a GI50 (Homo sapiens, CCRF-HSB-2, 48 h, CCRF-HSB-2 (ALL), read-out: Log(GI50) (converted)) of 0.185 nM, a GI50 (Homo sapiens, DOHH-2, 48 h, DOHH2 (NHL), read-out: GI50) of 0.24 nM and a GI50 (Homo sapiens, DOHH-2, 48 h, DOHH2 (NHL), read-out: Log(GI50) (converted)) of 0.235 nM. For the same molecule, the GI50 (Homo sapiens, HDLM-2, 48 h, HDLM-2 (HL), read-out: GI50) was 0.12 nM, the GI50 (Homo sapiens, HDLM-2, 48 h, HDLM-2 (HL), read-out: Log(GI50) (converted)) was 0.12 nM and the GI50 (Homo sapiens, HL-60, 48 h, HL60 (AML), read-out: GI50) was 0.17 nM. For the same molecule, the GI50 (Homo sapiens, HL-60, 48 h, HL60 (AML), read-out: Log(GI50) (converted)) was 0.165 nM, the GI50 (Homo sapiens, HuT78, 48 h, HuT78 (NHL), read-out: GI50) was 0.28 nM and the GI50 (Homo sapiens, HuT78, 48 h, HuT78 (NHL), read-out: Log(GI50) (converted)) was 0.275 nM. The GI50 (Homo sapiens, K562, 48 h, K562 (CML), read-out: GI50) was 0.21 nM, the GI50 (Homo sapiens, K562, 48 h, K562 (CML), read-out: Log(GI50) (converted)) was 0.209 nM and the GI50 (Homo sapiens, KARPAS-299, 48 h, Karpas-299 (NHL), read-out: GI50) was 0.2 nM. For the same molecule, the GI50 (Homo sapiens, KARPAS-299, 48 h, Karpas-299 (NHL), read-out: Log(GI50) (converted)) was 0.2 nM, the GI50 (Homo sapiens, KARPAS-422, 48 h, Karpas-422 (NHL), read-out: GI50) was 5.14 nM and the GI50 (Homo sapiens, KARPAS-422, 48 h, Karpas-422 (NHL), read-out: Log(GI50) (converted)) was 5.14 nM. It also gave a GI50 (Homo sapiens, KM-H2, 48 h, KM-H2 (HL), read-out: GI50) of 0.23 nM, a GI50 (Homo sapiens, KM-H2, 48 h, KM-H2 (HL), read-out: Log(GI50) (converted)) of 0.233 nM and a GI50 (Homo sapiens, KMS-11, 48 h, KMS11 (MM), read-out: GI50) of 0.48 nM. It also gave a GI50 (Homo sapiens, KMS-11, 48 h, KMS11 (MM), read-out: Log(GI50) (converted)) of 0.483 nM, a GI50 (Homo sapiens, Kasumi 1, 48 h, Kasumi-1 (AML), read-out: GI50) of 0.44 nM and a GI50 (Homo sapiens, Kasumi 1, 48 h, Kasumi-1 (AML), read-out: Log(GI50) (converted)) of 0.44 nM. It also gave a GI50 (Homo sapiens, L-363, 48 h, L363 (MM), read-out: GI50) of 0.13 nM, a GI50 (Homo sapiens, L-363, 48 h, L363 (MM), read-out: Log(GI50) (converted)) of 0.13 nM and a GI50 (Homo sapiens, L-428, 48 h, L428 (HL), read-out: GI50) of 20 nM. It also gave a GI50 (Homo sapiens, L-428, 48 h, L428 (HL), read-out: Log(GI50) (converted)) of 20 nM.
